The source of these data is patent publication US7897772B2, “Acid addition salt of irinotecan” (priority 2004, dated 2011).

Data set [1] is described as follows: Dissolution of irinotecan acid addition salts in water at 100 mg/mL at room temperature and state of the solution after 6 days of stirring (Example 1). It counts as physicochemical. To be noted: for State of the Solution after Day 6 (footnote symbol: salt not dissolved): 100 mg/mL in water at room temperature; for Dissolution of the salt in water at room temperature: salt content adjusted to 100 mg/mL, no heating. As to the method:
To an aqueous suspension of irinotecan (1-ethyl-10-[4-(1-piperidino)-1-piperidino]carbonyloxycamptothecin) produced through the method disclosed in Patent Document 1, each acid species was added, to thereby produce a corresponding irinotecan acid addition salt. The irinotecan acid addition salt content was adjusted to 100 mg/mL. […] Each of the aqueous solutions employing sulfuric acid, phosphoric acid methanesulfonic acid, citric acid, maleic acid, and succinic acid, respectively, was filtered by a membrane filter, and the filtrate was stirred at room temperature (25° C.). After continuous stirring for 6 days, the aqueous solution was visually observed so as to evaluate the state of the solution.

Data set [2] is described as follows: Dissolution of 100 mg/mL salt suspensions on heating and later crystal deposition at 25° C. (Example 2). Particulars: for Dissolution on heating: 100 mg/mL. It is filed as physicochemical. As to the method: The thus-produced irinotecan nitric acid addition salt solution was stirred at 25° C. After stirring of the solution for about 42 hours, crystals of the irinotecan nitric acid addition salt were deposited.

Setting [3] is: stirred at 100° C. for 30 minutes.

Structures are written as SMILES. Counter-ions that a name gives are not always drawn.

On to `CCc1c2c(nc3ccc(OC(=O)N4CCC(N5CCCCC5)CC4)cc13)-c1cc3c(c(=O)n1C2)COC(=O)[C@]3(O)CC` [Irinotecan nitric acid addition salt, irinotecan nitric acid salt], for which the “State of the Solution after Day 6 (footnote symbol: salt not dissolved)” value in data set [1] is listed as “*1”. Also, in data set [1] (listed as nitric acid), the “Dissolution of the salt in water at room temperature” value (“Dissolution of the salt in water” for short) is recorded as “not dissolved in water at room temperature”. Further, the “Stirring time after which crystals were deposited” value in data set [2] (100 mg/mL solution dissolved by heating, then stirred at 25° C.) is listed as “about 42 hours”. In addition, the Dissolution on heating result in data set [2] (70° C. under stirring for three minutes) was “completely dissolved”.
With `Br.CCc1c2c(nc3ccc(OC(=O)N4CCC(N5CCCCC5)CC4)cc13)-c1cc3c(c(=O)n1C2)COC(=O)C3(O)CC` (stereo not drawn) [Irinotecan hydrobromic acid addition salt, reference compound], in data set [1], the “State of the Solution after Day 6 (footnote symbol: salt not dissolved)” value is reported as “*1” and the “Dissolution of the salt in water” value is on record as “not dissolved in water at room temperature”. Also, the Dissolution on heating entry in data set [2] (setting [3]) is on record as “maintained undissolved”.
For `CCc1c2c(nc3ccc(OC(=O)N4CCC(N5CCCCC5)CC4)cc13)-c1cc3c(c(=O)n1C2)COC(=O)[C@]3(O)CC` [Irinotecan acetic acid addition salt, reference compound], the “Dissolution of the salt in water” value in data set [1] (listed as acetic acid) is recorded as “not dissolved in water at room temperature”. In data set [2] (setting [3]), the Dissolution on heating result is given as “maintained undissolved”.
